Reference: US8871681B2, “Herbicidal compositions comprising 4-amino-3-chloro-5-fluoro-6-(4-chloro-2-fluoro-3-methoxyphenyl) pyridine-2-carboxylic acid or a derivative thereof and certain sulfonylureas” (Dow AgroSciences LLC, priority 2012, dated 2014)

Assays:
[1] = system: FIMMI (Fimbristylis miliacea, globe fringerush); test: In-water applied weed control, transplanted paddy rice, greenhouse (Example II); type: in vivo, Fimbristylis miliacea (L.) Vahl
Procedure: (§1) Weed seeds or nutlets of the desired test plant species were planted in puddled soil (mud) prepared by mixing a shredded, non-sterilized mineral soil (50.5 percent silt, 25.5 percent clay, and 24 percent sand, with a pH of about 7.6 and an organic matter content of about 2.9 percent) and water at a 1:1 volumetric ratio. The prepared mud was dispensed in 365 mL aliquots into 16-ounce (oz.) non-perforated plastic pots with a surface area of 86.59 square centimeters (cm^2) leaving a headspace of 3 centimeters (cm) in each pot. Rice seeds were planted in Sun Gro MetroMix® 306 planting mixture, which typically has a pH of 6.0 to 6.8 and an organic matter content of about 30 percent, in plastic plug trays. Seedlings at the second or third leaf stage of growth were transplanted into 860 mL of mud contained in 32-oz. non-perforated plastic pots with a surface area of 86.59 cm^2 4 days prior to herbicide application. The paddy was created by filling the headspace of the pots with 2.5 to 3 cm of water. When required to ensure good germination and healthy plants, a fungicide treatment and/or other chemical or physical treatment was applied. The plants were grown for 4-22 days in a greenhouse with an approximate 14 h photoperiod which was maintained at about 29′C during the day and 26° C. during the night. Nutrients were added as Osmocote® (19:6:12, N:P:K+minor nutrients) at 2 g per 16-oz. pot and 4 g per 32-oz. pot. Water was added on a regular basis to maintain the paddy flood, and supplemental lighting was provided with overhead metal halide 1000-Watt lamps as necessary. The plants were employed for testing when they reached the first through fourth true leaf stage.
(§2) Treatments consisted of the acid or esters of 4-amino-3-chloro-5-fluoro-6-(4-chloro-2-fluoro-3-methoxy-phenyl)pyridine-2-carboxylic acid (compound A) each formulated as an SC and various herbicidal components alone and in combination. Forms of compound A were applied on an acid equivalent basis.
(§3) Other herbicidal components were applied on an active ingredient basis and included acetolactate synthase (ALS)-inhibiting herbicides (sulfonylurea chemical class), azimsulfuron formulated as Gulliver®, bensulfuron-methyl formulated as Londax® 60DF, cyclosulfamuron (technical grade materail), ethoxysulfuron formulated as Sunrice® 15 WDG, flucetosulfuron formulated as Sukedachi® 1KG G, imazosulfuron formulated as Brazzos®, metsulfuron-methyl formulated as Lorate®, nicosulfuron formulated as Accent®, orthosulfamuron formulated as Strada® WG, propyrisulfuron formulated as Zeta One®, and rimsulfuron formulated as Matrix® WG.
(§4) Treatment requirements for each compound or herbicidal component were calculated based upon the rates being tested, the concentration of active ingredient or acid equivalent in the formulation, an application volume of 2 mL per component per pot, and an application area of 86.59 cm^2 per pot.
(§5) For formulated compounds, a measured amount was placed in an individual 100 or 200 mL glass vial and was dissolved in a volume of 1.25% (v/v) Agri-Dex® crop oil concentrate to obtain application solutions.
For technical grade compounds, a weighed amount was placed in an individual 100 to 200 mL glass vial and was dissolved in a volume of acetone to obtain concentrated stock solutions. […] The concentrated stock solutions obtained were diluted with an equivalent volume of an aqueous mixture containing 2.5% (v/v) crop oil concentrate so that the final application solutions contained 1.25% (v/v) crop oil concentrate.
Applications were made by injecting with a pipetter appropriate amounts of the application solutions, individually and sequentially, into the aqueous layer of the paddy. Control plants were treated in the same manner with the solvent blank. Applications were made so that all treated plant material received the same concentrations of acetone and crop oil concentrate. […]

[2] = system: ECHCG (Echinochloa crus-galli, barnyardgrass); test: as above; type: in vivo, Echinochloa crus-galli (L.) Beauv.
Procedure: as §1, §2, §3, §4, §5
For technical grade compounds, a weighed amount was placed in an individual 100 to 200 mL glass vial and was dissolved in a volume of acetone to obtain concentrated stock solutions. […]

[3] = system: SETFA (Setaria faberi, giant foxtail); test: Pre-emergence soil-applied weed control, greenhouse (Example V); type: in vivo, Setaria faberi Herrm.; details: Table 59 (pre-emergence)
Text: Seeds or nutlets of the desired test plant species were planted in a soil matrix prepared by mixing a loam soil (32 percent silt, 23 percent clay, and 45 percent sand, with a pH of about 6.5 and an organic matter content of about 1.9 percent) and calcareous grit in an 80 to 20 ratio. The soil matrix was contained in plastic pots with a volume of 1 quart and a surface area of 83.6 square centimeters (cm^2).
as §2, with “benzyl ester” for “acid or esters”, “A)” for “A) each”, “SC (suspension concentrate)” for “SC”
Other herbicidal components were applied on an acid equivalent or active ingredient basis and included the acetolactate synthase (ALS)-inhibiting herbicide, flazasulfuron, formulated as Katana®.
Treatment requirements were calculated based upon the rates being tested, the concentration of active ingredient or acid equivalent in the formulation, and a 12 mL application volume at a rate of 187 L/ha.
For treatments comprised of formulated compounds, measured amounts of compounds were placed individually in 25 mL glass vials and diluted in a volume of 1.25% (v/v) Agri-Dex® crop oil concentrate (COC) to obtain 12× stock solutions. […] Application solutions were prepared by adding an appropriate amount of each stock solution (e.g., 1 mL) and diluted to the appropriate final concentrations with the addition of 10 mL of an aqueous mixture of 1.25% (v/v) COC so that the final spray solutions contained 1.25% (v/v) COC. […]
The treated and control pots were placed in a greenhouse and top watered as needed. […] After approximately 4 weeks, the condition of the test plants as compared with that of the untreated plants was determined visually and scored on a scale of 0 to 100 percent where 0 corresponds to no injury or growth inhibition and 100 corresponds to complete kill. […]

COc1c(Cl)ccc(-c2nc(C(=O)OCc3ccccc3)c(Cl)c(N)c2F)c1F [Compound A Benzyl Ester]
Visual Weed Control (%) - 21 DAA FIMMI Obs ([1]; Table 48, 8 gae/ha alone): 15% | Visual Weed Control (%) - 21 DAA FIMMI Obs ([1]; Table 48, 16 gae/ha alone): 65% | Visual Weed Control (%) - 21 DAA FIMMI Obs ([1]; Table 48, 32 gae/ha alone): 75% | Visual Weed Control (%) - 20 DAA ECHCG Obs ([2]; Table 50, 4.38 gae/ha alone): 15% | Visual Weed Control (%) - 20 DAA ECHCG Obs ([2]; Table 50, 8.75 gae/ha alone): 20% | Visual Weed Control (%) - 20 DAA ECHCG Obs ([2]; Table 50, 17.5 gae/ha alone): 40% | Visual Weed Control (%) - 27 DAA SETFA Obs ([3]; 16 gae/ha alone): 8% | Visual Weed Control (%) - 27 DAA SETFA Obs ([3]; 32 gae/ha alone): 15%
